# Assay results: ChEMBL document CHEMBL3046837, “Synthesis of some novel amino and thiotetrazole purine derivatives and investigation of their antimicrobial activity and DNA interactions” (Med Chem Res, 2013)
# The source made the active and inactive calls. The calls are words filed in the database; no cut-off is given here.
# Tests used:
# Bacillus subtilis = assay: Antibacterial activity against Bacillus subtilis […] after 24 hr by disk diffusion method; assay type: functional, organism-based
# Escherichia coli [1] = assay: Covalent binding to Escherichia coli pBR322 DNA assessed as decrease in intensity of form 2 DNA at low concentration after 24 hr by agarose gel electrophoresis
# Escherichia coli [2] = assay: Binding affinity to Escherichia coli pBR322 DNA assessed as appearance of DNA fragments at low concentration after 24 hr by agarose gel electrophoresis
# Enterococcus faecalis = assay: Antibacterial activity against Enterococcus faecalis […] after 24 hr by disk diffusion method; assay type: functional, organism-based
# Escherichia coli [3] = assay: Covalent binding to Escherichia coli pBR322 DNA Guanine-guanine site assessed as inhibition of BamH1-mediated restriction digestion at 1250 uM by restriction endonuclease analysis
# Escherichia coli [4] = assay: Covalent binding to Escherichia coli pBR322 DNA assessed as increase in intensity of form 1 DNA at low concentration after 24 hr by agarose gel electrophoresis
# Staphylococcus aureus = assay: Antibacterial activity against Staphylococcus aureus ATCC 25923 after 24 hr by disk diffusion method; assay type: functional, organism-based
# Escherichia coli [5] = assay: Covalent binding to Escherichia coli pBR322 DNA adenine-adenine site assessed as inhibition of Hind3-mediated restriction digestion at 1250 uM by restriction endonuclease analysis
# Candida tropicalis = assay: Antifungal activity against Candida tropicalis ATCC 13803 after 72 hr by disk diffusion method; assay type: functional, organism-based
# Escherichia coli [6] = assay: Antibacterial activity against Escherichia coli ATCC 25922 after 24 hr by disk diffusion method; assay type: functional, organism-based
# Candida albicans = assay: Antifungal activity against Candida albicans ATCC 10231 after 72 hr by disk diffusion method; assay type: functional, organism-based
# Escherichia coli [7] = assay: Antibacterial activity against Escherichia coli ATCC 35218 after 24 hr by disk diffusion method; assay type: functional, organism-based
# Proteus vulgaris = assay: Antibacterial activity against Proteus vulgaris ATCC 8427 after 24 hr by disk diffusion method; assay type: functional, organism-based
# Pseudomonas aeruginosa = assay: Antibacterial activity against Pseudomonas aeruginosa ATCC 27853 after 24 hr by disk diffusion method; assay type: functional, organism-based
# Bacillus cereus = assay: Antibacterial activity against Bacillus cereus NRLL B-3008 after 24 hr by disk diffusion method; assay type: functional, organism-based
# Escherichia coli [8] = assay: Binding affinity to Escherichia coli pBR322 DNA assessed as decrease in mobility of form 1 DNA at low concentration after 24 hr by agarose gel electrophoresis
# Escherichia coli [9] = assay: Covalent binding to Escherichia coli pBR322 DNA assessed as disappearance of form 2 DNA at low concentration after 24 hr by agarose gel electrophoresis
Activity (Escherichia coli [1]),Activity (Escherichia coli [2]),Activity (Escherichia coli [3]),Activity (Escherichia coli [4]),Activity (Escherichia coli [5]),Activity (Escherichia coli [8]),Activity (Escherichia coli [9]),SMILES,Activity (Bacillus subtilis),Activity (Enterococcus faecalis),Activity (Staphylococcus aureus),Activity (Candida tropicalis),Activity (Escherichia coli [6]),Activity (Candida albicans),Activity (Escherichia coli [7]),Activity (Proteus vulgaris),Activity (Pseudomonas aeruginosa),Activity (Bacillus cereus)
Active,Active,Active,Active,Active,,,Cn1nnnc1Sc1ncnc2c1ncn2CC1CCCCC1,inactive,inactive,inactive,inactive,inactive,inactive,inactive,inactive,inactive,inactive
,,Active,,Active,Active,Active,CCCCCCn1cnc2c(Sc3nnnn3C)ncnc21,inactive,inactive,inactive,inactive,inactive,inactive,inactive,inactive,inactive,inactive
,Active,inactive,,Active,Active,,CCCn1cnc2c(Nc3nnn[nH]3)ncnc21,inactive,inactive,inactive,inactive,inactive,inactive,inactive,inactive,inactive,inactive
